Each structure is given as a SMILES string.

The subject of the data set is HEK293 cells. The data set can be described thus: Ribo-F-NR dose response in HEK293 cells (MTT). It is filed as cell-based. Conditions: 12 hours; for absorbance: 570 nm. How it is done: 1. HEK293 cells were seeded in 96-well plate at a density of 10,000 cells/well the day before the experiment starts;
2. After the cells reach 50˜60% confluency, media was taken out, and 100 μL of fresh media was added to each well;
3. Ribo-F-NR (stock concentration=5.53 mM) were plated at 11, 22, 27, 44, 55, 83 and 111 μM (in triplicates) concentrations;
4. After 12 hours' incubation at 37° C., the media was taken out, 100 μL of fresh media was added to each well along with 20 μL of 5 mg/mL of MTT solution (in PBS);
5. After 1.5 hours' incubation at 37° C., media was taken out and 100 μL of DMSO was added to each well, the plate was mixed on shaker for 5 mins;
6. Absorbance was measured at 570 nm.

Turning to `NC(=O)c1ccc[n+]([C@@H]2O[C@H](CO)C(O)[C@@H]2F)c1` (stereo partly drawn) [ribo-F-NR, 1-(2-deoxy-2-fluoro-D-ribofuranosyl)-nicotinamide], the relative viability was 0.8067 (HEK293, 11 μM); 0.652 (HEK293, 22 μM); 0.4806 (HEK293, 27 μM); 0.2539 (HEK293, 44 μM); 0.1163 (HEK293, 55.3 μM); 0.04651 (HEK293, 83 μM). Also, the relative viability (HEK293, 111 μM) turned out to be 0.008358. The absorbance by setting is: (HEK293, 11 μM) 0.1041; (HEK293, 22 μM) 0.08411; (HEK293, 27 μM) 0.062; (HEK293, 44 μM) 0.03275; (HEK293, 55.3 μM) 0.015; (HEK293, 83 μM) 0.006. The molecule also returned an absorbance (HEK293, 111 μM) of 0.001078.

These data come from patent US9790252B2, “2-fluorinated riboses and arabinoses and methods of use and synthesis” (CORNELL UNIVERSITY, priority 2009, dated 2017).
